Results on two compounds are retold here after patent publication US20080242729A1, “Rxr Antagonists in the Treatment of Inflammatory Diseases” (priority 2004, published 2008).

One data set concerns normal skin of mice. Briefly: Effect on normal, non-inflamed skin of mice. Format: in vivo, mice (C57BL/6). Conditions: mouse ears. How it is done: The effect of the RXR antagonist compound A on normal skin of mice is investigated. The ears of C57BL/6 mice are treated epicutaneously (topically) for 4 consecutive days with compound A in a concentration of 0.05% and 2.5% in acetone/ethanol (1:1, v/v). Comparison with vehicle control. Daily observation of skin reactions, in particular inflammation, erythema, desquamation, and edema follows. Myeloperoxidase (MPO) activity is determined. The activity of MPO is considered the most sensitive criterium for the assessment of inflammation of the skin (see above, Examples 1 and 2).

For data set [1], the system named is human skin. Briefly: Clinical pilot trial: preventive and therapeutic effect on 9-cis RA induced human skin inflammation. It counts as in vivo. Conditions: Therapy: 9-cis RA 0.3% day 1 to day 14, compound A 1% from day 15. How it is done:
In this pilot clinical trial on one healthy volunteer, the substance 9-cis RA and compound A are administered epicutaneously. The inflammation-inducing agent 9-cis RA is used in a concentration of 0.3%. The RXR antagonist compound A is applied in a concentration of 1%. The compounds are solved in ethanol/propylene glycol (1:1) and administered twice daily. The site of application is the abdominal skin, with various areas of 3×3=9 cm^2. Volume per application is 0.1 ml.
The following three clinical settings at different sites are chosen:
1. Induction of Skin Inflammation by 9-cis RA • 9-cis RA is administered as a 0.3% solution twice daily from day 1 to day 14. The vehicle is administered from day 15 to disappearances of skin inflammation.
2. Prevention of 9-cis RA-Induced Skin Inflammation by RXR Antagonist Compound A • 9-cis RA solution of 0.3% is administered twice daily from day 1 to day 14, each time followed subsequently by application of compound A as a 1% solution.
3. Therapy of 9-Cis RA-Induced Skin Inflammation by RXR Antagonist Compound A • 9-cis RA solution of 0.3% is administered twice daily from day 1 to day 14. Compound A as a 1% solution is administered from day 15 until disappearance of skin inflammation.
The signs and symptoms of skin inflammation are recorded on a 0-4 scale, as described in example 16. […]

The test system of data set [2] is human skin. Kind of data set: Clinical phase I trial: skin inflammation induced by Candidin or UV-B irradiation in healthy volunteers. Format: in vivo. Conditions: Candidin intradermal or UV-B induced, topical treatment days 1-3, 4 volunteers; compound A 1% lotion, comparators as creams. How it is done: Four healthy volunteers participate. Inclusion criteria are: Age above 18 years, male or female. They are informed, with written letter of consent. Exclusion criteria are: Preexistant dermatological diseases, known allergy to test agents.
Inflammation inducing agents: Candidin is administered intradermally (see also D. Poffet, Comparaison entre le pouvoir vaso-constricteur d'un corticoide topique et l'inhibition de la dermite à la candidine après intradermoréaction (IDR). Thèse, Université de Genève, 1984). UV-B rays are administered by a UV-B lamp.
Inflammation is measured quantitatively. The area of the inflamed skin is measured in cm^2. The thickness of the skin is monitored by Ultrasound at 20 MHz. Erythema is measured by calorimetric determination employing a Minolta CR 20. […]
All determinations are recorded on a scale from 0 to 4: • 0=no reduction • 1=slight reduction (10 to 20%) • 2=moderate reduction (21 to 40%) • 3=marked reduction (41 to 70%) • 4=very marked reduction (71 to 100%) • Compared to vehicle control.

For data set [3], the system named is human skin. Kind of data set: Clinical pilot trial: inflammation potential on healthy, non-inflamed human skin (epicutaneous). It counts as in vivo. From the text:
In a clinical pilot trial on one healthy volunteer compound A is applied epicutaneously in a concentration of 1% for its inflammation potential compared to that of the strong inflammation inducing agent 9-cis RA in concentrations of 0.1%, 0.3% and 1%.
The compounds are solved or suspended in ethanol/propylene glycol (1:1). They are applied epicutaneously twice daily, 7 days a week, for two consecutive weeks. The site of application is an area of 3×3=9 cm^2 on the abdominal skin. The volume is 0.1 ml per application.
The following signs and symptoms of skin inflammation are recorded: Erythema, desquamation (scaling), pruritus, burning, pain, exsudation, edema, ulceration. They are classified on a scale of:
Treatment period lasts from day 1 to 14, the post-treatment observation period from day 15 to day 28

A further data set concerns MMP-1 mRNA. Briefly: MMP-1 mRNA accumulation in synovial fibroblasts (real time PCR). It counts as cell-based, human. How it is done: The effect of RXR antagonists on the activity of synovial fibroblasts, dependent on their state of activation, i.e. modified by a concomitant stimulation by the inflammatory cytokine Interleukin-1β (IL-1β), is determined. Furthermore, it is determined whether this is accompanied by a modulation in the accumulation of the mRNA encoding catabolic enzyme matrix metalloproteinase-1 (MMP-1), responsible for degradation of human cartilage and consequently joint destruction in man. Adherent synovial fluid cells taken from a patient with RA are used after 5 passages in an in vitro assay for cartilage destruction. The cells incubated in flasks coated with 0.1% (0.1 g/100 ml) human cartilage powder are fixed using Matrigel® (BD Biosciences, Becton, Dickinson & Co., Boston, Miss., USA). The release of sulphated glycosaminoglycan (sGAG) into the culture medium is monitored by a commercial calorimetric test according to a method described by S. Björnsson, see Anal. Biochem. 256, 229-237 (1998) using an alcian blue dot plot analysis, and the accumulation of mRNA encoding MMP-1 is quantified by real time PCR (TaqMan® (Roche Diagnostics, Basle, Switzerland)). […] This is conducted in the presence or absence of IL-1β (100 pg/ml).
On the technique in general: In qPCR the cycle at which signal appears reflects the starting amount.

In data set [4] the test system is synovial fibroblasts / human cartilage. Briefly: In vitro cartilage degradation by synovial fibroblasts from a RA patient, release of sGAG. Format: cell-based. How it is done: The effect of RXR antagonists on the activity of synovial fibroblasts, dependent on their state of activation, i.e. modified by a concomitant stimulation by the inflammatory cytokine Interleukin-1β (IL-1β), is determined. Furthermore, it is determined whether this is accompanied by a modulation in the accumulation of the mRNA encoding catabolic enzyme matrix metalloproteinase-1 (MMP-1), responsible for degradation of human cartilage and consequently joint destruction in man. Adherent synovial fluid cells taken from a patient with RA are used after 5 passages in an in vitro assay for cartilage destruction. The cells incubated in flasks coated with 0.1% (0.1 g/100 ml) human cartilage powder are fixed using Matrigel® (BD Biosciences, Becton, Dickinson & Co., Boston, Miss., USA). The release of sulphated glycosaminoglycan (sGAG) into the culture medium is monitored by a commercial calorimetric test according to a method described by S. Björnsson, see Anal. Biochem. 256, 229-237 (1998) using an alcian blue dot plot analysis, and the accumulation of mRNA encoding MMP-1 is quantified by real time PCR (TaqMan® (Roche Diagnostics, Basle, Switzerland)).
The retinoid agonists all-trans retinoic acid and 9-cis retinoic acid, both physiological metabolites of vitamin A, as well as the RXR antagonist compound A, diluted first in ethanol, and then diluted with vehicle or medium to the desired dose/concentration are tested in a time course (0-35 days for the in vitro assay, 0-48 hours for MMP-1 mRNA, see tables 7, 8 and 10) and dose-dependent (10^−7 to 10^−9 M, see tables 5, 6 and 9). This is conducted in the presence or absence of IL-1β (100 pg/ml).

On to `CCCCOc1c(\C(C)=C/C=C/C(C)=C/C(=O)O)cc(C(C)(C)C)cc1C(C)(C)C` [compound A, (2E,4E,6Z)-7-[2-butoxy-3,5-bis(1,1-dimethylethyl)-phenyl]-3-methyl-2,4,6-octatrienoic acid], for which the “MPO activity compared to the vehicle control, normal skin” value in the data set with normal skin of mice (compound A 0.05%, epicutaneous, 4 days) is given as “no significant change”. In the data set on normal skin of mice (compound A 2.5%, epicutaneous, 4 days), the “MPO activity in % of that of the vehicle control, normal skin” value turned out to be 57%. Further, the “clinical signs or symptoms of a skin inflammation on normal skin” value in the data set with normal skin of mice (epicutaneous 0.05% and 2.5% in acetone/ethanol, 4 consecutive days) is given as “does not induce clinical signs or symptoms of a skin inflammation”. Moreover, the “reduction of all parameters in comparison to the values of 9-cis RA” value in the data set with human skin [1] is on record as not below 50%. Also, in the data set with human skin [2], the “reduction of the inflammatory reaction compared to vehicle control (skin thickness, erythema, area of inflamed skin)” value was “very marked”. Moreover, the “skin inflammation, objective or subjective symptoms” value with human skin [3] (1% epicutaneous twice daily day 1-14, observation to day 28) is “no skin inflammation”.
On to `CC1=C(/C=C/C(C)=C\C=C\C(C)=C\C(=O)O)C(C)(C)CCC1` [9-cis RA, 9-cis retinoic acid], for which the “MMP-1 mRNA in relative units (fold increase of baseline value)” value is recorded as 2.60 relative units with MMP-1 mRNA (10^−7 M, after 24 hours); 1 relative units with MMP-1 mRNA (10^−8 M, 0 hours); 0.98 relative units in the data set with MMP-1 mRNA (10^−8 M, 2 hours); 1.31 relative units with MMP-1 mRNA (10^−8 M, 6 hours); 3.39 relative units with MMP-1 mRNA (10^−8 M, 12 hours); 3.79 relative units in the data set with MMP-1 mRNA (10^−8 M, 24 hours). For the same compound, the “MMP-1 mRNA in relative units (fold increase of baseline value)” value in the data set on MMP-1 mRNA (10^−8 M, 48 hours) is reported as 1.47 relative units; in the data set on MMP-1 mRNA (10^−8 M, after 24 hours), 3.39 relative units; with MMP-1 mRNA (10^−9 M, after 24 hours) it was 1.54 relative units. For the same compound, the “sGAG in μg/ml (release of sGAG/14 days)” value was 189 µg/mL in data set [4] (10^−7 M, absence of IL-1β); 221 µg/mL in data set [4] (10^−7 M, presence of 100 pg/ml IL-1β); 107 µg/mL in data set [4] (10^−8 M, absence of IL-1β); 189 µg/mL in data set [4] (10^−8 M, presence of 100 pg/ml IL-1β); 64 µg/mL in data set [4] (10^−9 M, absence of IL-1β); 204 µg/mL in data set [4] (10^−9 M, presence of 100 pg/ml IL-1β). In addition, the “Cumulative μg/ml sGAG/14 days” value was determined as 44 µg/mL in data set [4] (10^−8 M, absence of IL-1β, day 7); 107 µg/mL in data set [4] (10^−8 M, absence of IL-1β, day 14); 206 µg/mL in data set [4] (10^−8 M, absence of IL-1β, day 21); 253 µg/mL in data set [4] (10^−8 M, absence of IL-1β, day 28); 292 µg/mL in data set [4] (10^−8 M, absence of IL-1β, day 35); 68 µg/mL in data set [4] (10^−8 M, presence of 100 pg/ml IL-1β, day 7). Further, the “Cumulative μg/ml sGAG/14 days” value was 189 µg/mL in data set [4] (10^−8 M, presence of 100 pg/ml IL-1β, day 14); 330 µg/mL in data set [4] (10^−8 M, presence of 100 pg/ml IL-1β, day 21); 407 µg/mL in data set [4] (10^−8 M, presence of 100 pg/ml IL-1β, day 28); 441 µg/mL in data set [4] (10^−8 M, presence of 100 pg/ml IL-1β, day 35). Moreover, the “time after discontinuation of treatment until inflammation decreases to 0” value in the data set with human skin [3] (0.1% to 1.0%, depending on the concentration (days 18 to 22)) lay within 4 to 8 days. Also, the “signs or symptoms of skin inflammation” value in the data set with human skin [3] (0.1%, 0.3% and 1.0% epicutaneous twice daily, around the tenth and eleventh day) was “slight erythema, desquamation and pruritus”; in the data set on human skin [3] (0.1%, 0.3% and 1.0% epicutaneous twice daily, first 9 days after start of treatment, one volunteer) it was “no signs or symptoms of skin inflammation”; in the data set with human skin [3] (0.1 and 0.3% epicutaneous twice daily, days 12, 13 and 14), “moderate inflammation”; with human skin [3] (1.0% epicutaneous twice daily, days 12, 13 and 14), “marked inflammation”.
